Measurements as given in US10933052B2, “Compositions and methods for the treatment of eye disorders” (Cellix Bio Private Limited, priority 2017, dated 2021).

Experiment: Ocular pharmacokinetic study of CLX-156 formulation, topical administration in each eye
Assay type: in vivo, male New Zealand white rabbits
Details: rabbit, topical 50 μL in each eye
Procedure: A pharmacokinetics study was conducted on male New Zealand white rabbits to evaluate the ocular pharmacokinetics of CLX-156 (Pilocarpine-(R)-Lipoate) formulation. Animals were topically administered with 50 μL of CLX-156 in each eye, and the aqueous humour and blood samples were collected followed by sacrifice of the animals for collection of lens, cornea and iris region at a pre-determined time.
The aqueous humour and tissue concentration of Pilocarpine and (R)-Lipoic acid were measured at 0.5 h, 1 h, 2 h, 4 h and 8 h in 3 animals/time point/group (as provided in Table 2 and Table 3 hereinbelow). Further, (R)-Lipoic acid concentration was measured in the lens region, and Pilocarpine concentration was measured in iris region of each of the treated animals (as provided in Table 2 and Table 3). All the samples were analyzed using LCMS-MS by a fit for purpose method.

[1] = analyte (R)-Lipoic acid, aqueous humour
[2] = analyte (R)-Lipoic acid, lens region
[3] = analyte Pilocarpine, aqueous humour
[4] = analyte Pilocarpine, iris region

**Q.** Which “AUClast, (R)-Lipoic acid in aqueous humour” value [1] does the source give for “5-(((3R,4S)-4-ethyl-5-oxotetrahydro furan-3-yl)methyl)-1-methyl-1H-imidazol-1-ium (R)-5-(1,2-dithiolan-3-yl)pentanoate [CLX-156]” here?
**A.** The value was 17271 ng·h/mL.

**Q.** And the “Cmax, concentration of (R)-Lipoic acid in aqueous humour” value [1]?
**A.** Its value is 21067 ng/mL.

**Q.** And the “Tmax, (R)-Lipoic acid in aqueous humour” value [1]?
**A.** The value was 30 min.

**Q.** What about the “AUClast, (R)-Lipoic acid in lens region” value [2] of the same substance?
**A.** Its value is 0.364 µg·h/g.

**Q.** What about the “Tmax, (R)-Lipoic acid in lens region” value [2] of the same substance?
**A.** Its value is 30 min.

**Q.** What about the “AUClast, Pilocarpine in aqueous humour” value [3] of the same substance?
**A.** The value was 6359 ng·h/mL.

**Q.** And the “Cmax, concentration of Pilocarpine in aqueous humour” value [3]?
**A.** Its value is 6480 ng/mL.

**Q.** What about the “Tmax, Pilocarpine in aqueous humour” value [3] of the same substance?
**A.** The value was 30 min.

**Q.** And the “time up to which pilocarpine was detectable in aqueous humour” value [3]?
**A.** The value was “up to 4 h”.

**Q.** What about the “AUClast, Pilocarpine in iris region” value [4] of the same substance?
**A.** The value was 1.491 µg·h/g.

**Q.** What about the “Tmax, Pilocarpine in iris region” value [4] of the same substance?
**A.** The value was 30 min.

**Q.** What about the “time up to which pilocarpine was detectable in iris region” value [4] of the same substance?
**A.** The value was “up to 2 h”.
